Data on three compounds can be found in publication PMC5220300, “Variant Ionotropic Receptors in the Malaria Vector Mosquito Anopheles gambiae Tuned to Amines and Carboxylic Acids” (Scientific Reports, 2017).

Format in all cases: cell-based
Assay [1] deals with T1, AgIR75k (Anopheles coluzzii, UniProt A0A6E8VT06).
T1 construct: with AgIr8a (co-receptor)
T1 sequence (A0A6E8VT06 26-675): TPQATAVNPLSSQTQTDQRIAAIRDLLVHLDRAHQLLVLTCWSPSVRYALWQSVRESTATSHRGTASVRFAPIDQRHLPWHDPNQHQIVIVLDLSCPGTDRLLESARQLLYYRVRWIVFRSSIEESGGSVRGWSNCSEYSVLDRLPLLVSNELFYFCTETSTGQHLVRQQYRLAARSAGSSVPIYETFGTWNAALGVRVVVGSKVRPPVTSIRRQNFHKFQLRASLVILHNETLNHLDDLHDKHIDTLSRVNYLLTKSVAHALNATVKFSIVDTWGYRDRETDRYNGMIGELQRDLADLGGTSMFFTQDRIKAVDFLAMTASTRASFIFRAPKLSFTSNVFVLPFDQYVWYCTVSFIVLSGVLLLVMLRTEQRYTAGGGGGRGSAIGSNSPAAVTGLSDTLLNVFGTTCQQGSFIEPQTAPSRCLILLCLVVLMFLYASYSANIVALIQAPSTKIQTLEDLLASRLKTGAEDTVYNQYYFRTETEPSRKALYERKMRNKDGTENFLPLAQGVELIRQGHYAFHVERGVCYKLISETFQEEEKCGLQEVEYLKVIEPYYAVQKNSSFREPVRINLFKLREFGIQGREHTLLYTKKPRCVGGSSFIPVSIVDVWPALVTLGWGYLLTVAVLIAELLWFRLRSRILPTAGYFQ
T1 sequence (A0A6E8W0A6 1-828 partner): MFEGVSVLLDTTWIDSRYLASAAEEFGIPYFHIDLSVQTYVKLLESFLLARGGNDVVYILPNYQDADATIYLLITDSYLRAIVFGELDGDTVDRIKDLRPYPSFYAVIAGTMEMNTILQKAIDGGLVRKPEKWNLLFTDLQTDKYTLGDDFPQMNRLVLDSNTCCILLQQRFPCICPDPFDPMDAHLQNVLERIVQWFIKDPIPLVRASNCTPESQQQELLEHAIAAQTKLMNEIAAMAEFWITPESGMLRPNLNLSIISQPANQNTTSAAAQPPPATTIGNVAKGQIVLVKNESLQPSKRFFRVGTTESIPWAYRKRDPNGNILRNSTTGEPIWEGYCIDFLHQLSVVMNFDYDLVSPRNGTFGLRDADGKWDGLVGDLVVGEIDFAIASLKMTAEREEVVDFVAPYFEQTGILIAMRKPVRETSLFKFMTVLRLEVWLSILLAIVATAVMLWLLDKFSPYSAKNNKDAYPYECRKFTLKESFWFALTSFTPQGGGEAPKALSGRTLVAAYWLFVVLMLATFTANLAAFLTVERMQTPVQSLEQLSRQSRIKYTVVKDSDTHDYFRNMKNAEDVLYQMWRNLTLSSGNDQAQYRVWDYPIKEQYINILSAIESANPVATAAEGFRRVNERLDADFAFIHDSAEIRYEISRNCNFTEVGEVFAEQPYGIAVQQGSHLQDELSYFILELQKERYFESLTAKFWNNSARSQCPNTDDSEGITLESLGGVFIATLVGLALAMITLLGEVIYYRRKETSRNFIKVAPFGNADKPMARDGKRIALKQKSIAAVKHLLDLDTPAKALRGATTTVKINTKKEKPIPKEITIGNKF
Briefly: two-electrode voltage clamp, Xenopus oocytes, concentration-response.

The target of assay [2] is T1, AgIR75k. Briefly: two-electrode voltage clamp, Xenopus oocytes, […] single concentration. For orientation: Two-electrode voltage clamp holds a large cell at a set potential and records current.
Assay [3] deals with T2, AgIR41c (Anopheles coluzzii, UniProt A0A6E8W7H2).
T2 construct: with AgIr25a and AgIr76b (co-receptors)
T2 sequence (A0A6E8W7H2 1-669, one chain of several): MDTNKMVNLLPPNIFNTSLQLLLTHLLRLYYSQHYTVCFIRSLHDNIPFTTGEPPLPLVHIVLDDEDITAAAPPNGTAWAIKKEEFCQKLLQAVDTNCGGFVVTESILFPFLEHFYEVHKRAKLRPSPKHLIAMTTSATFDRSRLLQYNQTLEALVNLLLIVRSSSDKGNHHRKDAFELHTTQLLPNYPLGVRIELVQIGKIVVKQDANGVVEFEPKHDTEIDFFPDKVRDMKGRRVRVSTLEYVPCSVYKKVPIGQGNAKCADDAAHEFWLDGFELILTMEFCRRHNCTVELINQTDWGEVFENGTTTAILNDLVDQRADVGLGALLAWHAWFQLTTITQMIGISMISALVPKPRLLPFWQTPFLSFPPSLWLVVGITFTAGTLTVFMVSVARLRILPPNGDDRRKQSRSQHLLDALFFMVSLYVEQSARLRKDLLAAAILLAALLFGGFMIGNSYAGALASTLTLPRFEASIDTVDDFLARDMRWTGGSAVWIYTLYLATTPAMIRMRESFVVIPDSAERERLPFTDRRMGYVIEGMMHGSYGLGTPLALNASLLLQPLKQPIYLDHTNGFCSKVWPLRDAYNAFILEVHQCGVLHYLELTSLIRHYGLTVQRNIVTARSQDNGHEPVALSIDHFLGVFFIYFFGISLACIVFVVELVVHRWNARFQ
As to the kind of experiment: two-electrode voltage clamp, Xenopus oocytes, concentration-response.

Assay [4] has as its target T3, AgIR41a (Anopheles coluzzii, UniProt A0A6E8V5R5).
T3 construct: with AgIr25a and AgIr76b (co-receptors)
T3 sequence (A0A6E8V5R5 1-637): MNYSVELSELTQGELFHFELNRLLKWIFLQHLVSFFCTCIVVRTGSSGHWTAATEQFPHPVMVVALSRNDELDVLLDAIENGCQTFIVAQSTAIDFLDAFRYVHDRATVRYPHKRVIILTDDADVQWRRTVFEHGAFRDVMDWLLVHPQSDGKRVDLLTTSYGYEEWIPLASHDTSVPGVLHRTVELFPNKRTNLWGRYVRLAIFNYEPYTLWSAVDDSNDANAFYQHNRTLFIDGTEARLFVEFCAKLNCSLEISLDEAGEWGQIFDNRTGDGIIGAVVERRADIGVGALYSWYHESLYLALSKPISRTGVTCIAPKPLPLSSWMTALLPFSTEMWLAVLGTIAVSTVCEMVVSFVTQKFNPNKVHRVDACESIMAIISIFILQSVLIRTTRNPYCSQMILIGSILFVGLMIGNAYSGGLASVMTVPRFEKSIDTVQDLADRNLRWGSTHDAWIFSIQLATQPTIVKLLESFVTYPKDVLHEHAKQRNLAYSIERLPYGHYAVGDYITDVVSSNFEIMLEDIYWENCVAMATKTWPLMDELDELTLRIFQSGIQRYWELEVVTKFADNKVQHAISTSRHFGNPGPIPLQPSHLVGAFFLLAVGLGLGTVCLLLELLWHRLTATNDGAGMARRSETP
T3 sequence (A0A1S4H3H9 28-946 partner): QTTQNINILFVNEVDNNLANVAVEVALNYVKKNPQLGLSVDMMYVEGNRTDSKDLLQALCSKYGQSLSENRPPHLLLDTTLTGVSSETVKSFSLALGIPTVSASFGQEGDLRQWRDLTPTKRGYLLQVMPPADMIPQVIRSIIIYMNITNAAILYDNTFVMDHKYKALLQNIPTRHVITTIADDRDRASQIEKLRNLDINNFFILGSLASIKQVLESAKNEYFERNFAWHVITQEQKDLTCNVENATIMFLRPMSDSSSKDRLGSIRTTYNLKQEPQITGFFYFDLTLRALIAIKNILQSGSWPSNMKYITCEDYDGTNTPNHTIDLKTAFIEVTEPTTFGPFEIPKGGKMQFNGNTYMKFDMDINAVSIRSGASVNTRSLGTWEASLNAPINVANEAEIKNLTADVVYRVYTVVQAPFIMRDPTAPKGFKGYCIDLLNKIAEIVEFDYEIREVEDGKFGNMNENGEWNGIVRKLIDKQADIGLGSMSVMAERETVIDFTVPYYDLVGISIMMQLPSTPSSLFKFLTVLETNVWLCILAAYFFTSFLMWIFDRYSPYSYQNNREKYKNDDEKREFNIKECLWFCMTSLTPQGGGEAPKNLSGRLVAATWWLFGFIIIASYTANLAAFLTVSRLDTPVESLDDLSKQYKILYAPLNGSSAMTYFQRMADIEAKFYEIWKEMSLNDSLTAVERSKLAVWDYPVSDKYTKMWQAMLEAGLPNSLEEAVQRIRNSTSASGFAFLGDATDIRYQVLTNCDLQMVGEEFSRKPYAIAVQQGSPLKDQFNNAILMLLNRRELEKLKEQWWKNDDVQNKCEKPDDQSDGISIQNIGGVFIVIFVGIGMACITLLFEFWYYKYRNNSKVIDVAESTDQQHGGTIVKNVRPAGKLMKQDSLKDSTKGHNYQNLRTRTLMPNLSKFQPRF
T3 sequence (A0A6E8W6Y5 1-657 partner): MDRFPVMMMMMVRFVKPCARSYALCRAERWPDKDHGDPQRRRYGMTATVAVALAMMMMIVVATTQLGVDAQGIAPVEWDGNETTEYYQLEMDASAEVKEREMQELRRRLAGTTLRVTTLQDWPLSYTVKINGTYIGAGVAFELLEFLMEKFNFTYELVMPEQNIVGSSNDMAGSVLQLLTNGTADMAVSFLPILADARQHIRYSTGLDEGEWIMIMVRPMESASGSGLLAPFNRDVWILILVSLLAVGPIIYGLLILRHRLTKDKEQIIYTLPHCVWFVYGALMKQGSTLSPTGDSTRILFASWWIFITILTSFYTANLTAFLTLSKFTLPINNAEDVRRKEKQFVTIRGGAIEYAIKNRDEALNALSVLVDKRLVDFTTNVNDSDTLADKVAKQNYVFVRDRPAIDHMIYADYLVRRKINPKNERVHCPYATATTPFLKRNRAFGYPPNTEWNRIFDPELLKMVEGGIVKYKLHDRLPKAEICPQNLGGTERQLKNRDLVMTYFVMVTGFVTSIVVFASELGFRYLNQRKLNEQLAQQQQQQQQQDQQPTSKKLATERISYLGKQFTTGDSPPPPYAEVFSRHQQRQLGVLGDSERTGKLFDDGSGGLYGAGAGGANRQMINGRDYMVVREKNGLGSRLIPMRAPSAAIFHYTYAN
Described as above.

Broadly, the EC50 is the concentration needed to bring the measured effect to its halfway point. High values mean a less potent agent, low ones a more potent agent. As for `CCCCCCCCC(=O)O` [nonanoic acid], in assay [1], the EC50 worked out at 35 µM. That is a double-digit micromolar value.

In the case of `CCCCCCCC(=O)O` [octanoic acid], in assay [2], the “two-electrode voltage clamp, Xenopus oocytes, 10^-4 M single concentration” value is “octanoic and nonanoic acids elicited the greatest inward currents”.

In the case of `C1CCNC1` [pyrrolidine], the EC50 in assay [3] was 3.4 µM; in assay [4], 110 µM.
